Target: ATP-dependent translocase ABCB1 (Mus musculus, UniProt P21447)
Experiment: TP_TRANSPORTER: increase in brain concentration in mdr1a(-/-) mouse
Type: functional, organism-based
Details: in vivo

Chain of ATP-dependent translocase ABCB1 (P21447 whole entry): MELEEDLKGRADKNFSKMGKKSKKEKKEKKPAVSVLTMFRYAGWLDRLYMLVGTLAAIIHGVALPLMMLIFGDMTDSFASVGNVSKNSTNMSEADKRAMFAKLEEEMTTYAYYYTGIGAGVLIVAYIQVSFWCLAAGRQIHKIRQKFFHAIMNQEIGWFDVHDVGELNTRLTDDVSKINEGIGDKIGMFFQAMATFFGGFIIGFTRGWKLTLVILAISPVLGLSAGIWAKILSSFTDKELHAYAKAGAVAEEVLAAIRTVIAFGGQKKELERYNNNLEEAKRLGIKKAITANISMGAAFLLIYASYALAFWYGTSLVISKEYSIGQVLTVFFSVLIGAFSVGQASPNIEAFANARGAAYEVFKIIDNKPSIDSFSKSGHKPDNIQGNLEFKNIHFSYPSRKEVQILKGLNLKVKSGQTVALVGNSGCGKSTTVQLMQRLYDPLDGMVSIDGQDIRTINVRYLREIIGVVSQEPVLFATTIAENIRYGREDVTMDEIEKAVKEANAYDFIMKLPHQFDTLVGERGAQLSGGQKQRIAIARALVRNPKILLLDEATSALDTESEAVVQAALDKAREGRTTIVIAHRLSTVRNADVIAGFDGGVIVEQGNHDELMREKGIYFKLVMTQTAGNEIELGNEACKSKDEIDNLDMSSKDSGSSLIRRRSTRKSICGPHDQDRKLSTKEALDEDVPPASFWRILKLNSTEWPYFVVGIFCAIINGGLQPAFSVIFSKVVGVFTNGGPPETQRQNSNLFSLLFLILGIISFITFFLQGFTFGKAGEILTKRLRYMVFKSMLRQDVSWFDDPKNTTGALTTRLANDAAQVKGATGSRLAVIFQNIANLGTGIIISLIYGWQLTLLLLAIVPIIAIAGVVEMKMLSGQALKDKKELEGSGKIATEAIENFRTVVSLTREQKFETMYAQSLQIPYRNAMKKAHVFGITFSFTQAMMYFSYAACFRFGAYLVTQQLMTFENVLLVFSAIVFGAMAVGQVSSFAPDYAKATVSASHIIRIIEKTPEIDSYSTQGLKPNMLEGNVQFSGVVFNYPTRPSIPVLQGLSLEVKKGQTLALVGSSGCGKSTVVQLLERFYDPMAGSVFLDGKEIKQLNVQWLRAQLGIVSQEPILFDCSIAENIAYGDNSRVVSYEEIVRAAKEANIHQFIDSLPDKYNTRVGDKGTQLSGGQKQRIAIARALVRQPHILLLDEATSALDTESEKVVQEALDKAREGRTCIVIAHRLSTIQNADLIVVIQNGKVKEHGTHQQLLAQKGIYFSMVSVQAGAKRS

CN(C)CCC=C1c2ccccc2CCc2ccccc21 [AMITRIPTYLINE]
Activity: substrate [+]

CNCCC=C1c2ccccc2CCc2ccccc21 [NORTRIPTYLINE]
Activity: substrate [+]

— ChEMBL document CHEMBL2074214, “Penetration of amitriptyline, but not of fluoxetine, into brain is enhanced in mice with blood-brain barrier deficiency due to mdr1a P-glycoprotein gene disruption” (Neuropsychopharmacology, 2000)
